# Data from patent publication US9168259B2 (GRÜNENTHAL GMBH, priority 2010, dated 2015).
# Molecular target: T1, KCNQ2/3 channels (Homo sapiens, UniProt O43525+O43526)
# T1 construct: expressed in transfected cells
# Experiment: Fluorescence assay using a voltage sensitive dye (fluorimetry)
# Format: cell-based
# Details: CHO-K1 cells expressing KCNQ2/3; for Emax: CHO-K1, plateau effect relative to saturated retigabine (50 μM) = 100%, negative values = antagonistic, read-out: Fluorimetry % efficacy (retigabine = 100%); for EC50: IC50 where % efficacy is negative, read-out: Fluorimetry EC50/IC50
# T1 sequence (O43526 whole entry): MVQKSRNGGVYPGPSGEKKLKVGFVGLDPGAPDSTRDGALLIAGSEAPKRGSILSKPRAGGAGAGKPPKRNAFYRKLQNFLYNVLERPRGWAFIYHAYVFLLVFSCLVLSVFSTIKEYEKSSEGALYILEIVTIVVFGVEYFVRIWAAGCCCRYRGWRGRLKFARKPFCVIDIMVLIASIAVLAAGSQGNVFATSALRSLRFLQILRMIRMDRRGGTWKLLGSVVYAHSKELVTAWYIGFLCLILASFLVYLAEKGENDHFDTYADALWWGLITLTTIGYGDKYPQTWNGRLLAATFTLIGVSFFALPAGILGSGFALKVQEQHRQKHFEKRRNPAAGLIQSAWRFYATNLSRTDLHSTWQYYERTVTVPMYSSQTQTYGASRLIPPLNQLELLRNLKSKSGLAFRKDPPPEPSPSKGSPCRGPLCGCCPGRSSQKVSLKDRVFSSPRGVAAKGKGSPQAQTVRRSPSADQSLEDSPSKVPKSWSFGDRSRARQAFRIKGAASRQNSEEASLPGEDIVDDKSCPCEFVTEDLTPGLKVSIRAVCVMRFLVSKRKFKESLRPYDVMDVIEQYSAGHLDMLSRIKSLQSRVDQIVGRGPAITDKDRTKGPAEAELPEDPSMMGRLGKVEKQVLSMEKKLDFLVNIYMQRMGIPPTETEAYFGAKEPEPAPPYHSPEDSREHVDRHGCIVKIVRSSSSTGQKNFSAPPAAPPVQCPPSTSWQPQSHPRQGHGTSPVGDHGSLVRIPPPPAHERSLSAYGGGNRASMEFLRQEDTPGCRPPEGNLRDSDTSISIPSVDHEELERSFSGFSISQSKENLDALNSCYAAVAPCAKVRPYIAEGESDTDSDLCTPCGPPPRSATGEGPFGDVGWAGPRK
# T1 sequence (O43525 whole entry): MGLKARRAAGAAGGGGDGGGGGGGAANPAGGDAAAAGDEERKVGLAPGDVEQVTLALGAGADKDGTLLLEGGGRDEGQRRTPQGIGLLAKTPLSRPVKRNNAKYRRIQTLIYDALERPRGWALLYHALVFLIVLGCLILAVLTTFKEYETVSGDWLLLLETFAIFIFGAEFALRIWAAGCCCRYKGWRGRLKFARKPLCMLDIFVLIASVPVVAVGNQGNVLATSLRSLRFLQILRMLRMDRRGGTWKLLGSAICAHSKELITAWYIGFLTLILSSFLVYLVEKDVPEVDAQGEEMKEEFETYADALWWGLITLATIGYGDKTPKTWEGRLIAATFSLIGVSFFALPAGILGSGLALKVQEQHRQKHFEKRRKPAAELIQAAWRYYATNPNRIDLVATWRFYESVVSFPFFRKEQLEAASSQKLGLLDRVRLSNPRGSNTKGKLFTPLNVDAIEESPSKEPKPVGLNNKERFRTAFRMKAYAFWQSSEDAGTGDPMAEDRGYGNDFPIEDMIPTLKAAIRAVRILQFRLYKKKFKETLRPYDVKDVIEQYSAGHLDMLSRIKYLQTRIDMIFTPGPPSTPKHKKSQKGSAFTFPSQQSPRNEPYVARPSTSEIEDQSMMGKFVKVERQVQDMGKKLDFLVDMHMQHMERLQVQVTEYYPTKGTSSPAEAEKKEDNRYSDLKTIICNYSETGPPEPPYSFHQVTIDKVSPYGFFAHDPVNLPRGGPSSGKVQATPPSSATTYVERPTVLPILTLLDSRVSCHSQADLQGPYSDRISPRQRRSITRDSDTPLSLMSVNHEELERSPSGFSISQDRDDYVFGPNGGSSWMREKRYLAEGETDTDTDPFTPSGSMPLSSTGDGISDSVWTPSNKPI
SMILES,Emax,EC50
"COc1nc(N2CCCOCC2)cc(C)c1C(=O)NCc1cccc(F)c1 [Example 98, N-[(3-Fluorophenyl)-methyl]-2-methoxy-4-methyl-6-([1,4]oxazepan-4-yl)-pyridine-3-carboxylic acid amide]",146%,2310 nM
"CCOc1nc(N2CCCOCC2)cc(C)c1C(=O)NCc1cccc(F)c1 [Example 99, 2-Ethoxy-N-[(3-fluorophenyl)-methyl]-4-methyl-6-([1,4]oxazepan-4-yl)-pyridine-3-carboxylic acid amide]",134%,899 nM
"CCSc1nc(N2CCOCC2)cc(C)c1C(=O)NCc1cccc(F)c1F [Example 100, N-[(2,3-Difluoro-phenyl)-methyl]-2-ethylsulfanyl-4-methyl-6-morpholin-4-yl-pyridine-3-carboxylic acid amide]",98%,118 nM
"CCSc1nc(N2CCOCC2)cc(C)c1C(=O)NCc1cc(F)ccc1F [Example 101, N-[(2,5-Difluoro-phenyl)-methyl]-2-ethylsulfanyl-4-methyl-6-morpholin-4-yl-pyridine-3-carboxylic acid amide]",100%,133 nM
"CCSc1nc(N2CCOCC2)cc(C)c1C(=O)NCc1cccc(C#N)c1 [Example 102, N-[(3-Cyano-phenyl)-methyl]-2-ethylsulfanyl-4-methyl-6-morpholin-4-yl-pyridine-3-carboxylic acid amide]",138%,1220 nM
"CCSc1nc(N2CCOCC2)cc(C)c1C(=O)NCCOC(C)C [Example 103, 2-Ethylsulfanyl-N-(2-isopropoxy-ethyl)-4-methyl-6-morpholin-4-yl-pyridine-3-carboxylic acid amide]",142%,4520 nM
"CCSc1nc(N2CCOCC2)cc(C)c1C(=O)NCCC(C)(C)C [Example 104, N-(3,3-Dimethyl-butyl)-2-ethylsulfanyl-4-methyl-6-morpholin-4-yl-pyridine-3-carboxylic acid amide]",100%,1400 nM
"CCSc1nc(N2CCOCC2)cc(C)c1C(=O)NCCCC1CCCC1 [Example 105, N-(3-Cyclopentyl-propyl)-2-ethylsulfanyl-4-methyl-6-morpholin-4-yl-pyridine-3-carboxylic acid amide]",207%,179 nM
"CCSc1nc(N2CCOCC2)cc(C)c1C(=O)NCCC1CCCCC1 [Example 106, N-(2-Cyclohexyl-ethyl)-2-ethylsulfanyl-4-methyl-6-morpholin-4-yl-pyridine-3-carboxylic acid amide]",160%,172 nM
"CCSc1nc(N2CCOCC2)cc(C)c1C(=O)NCc1ccc(F)cc1F [Example 107, N-[(2,4-Difluoro-phenyl)-methyl]-2-ethylsulfanyl-4-methyl-6-morpholin-4-yl-pyridine-3-carboxylic acid amide]",90%,88 nM
"CCSc1nc(N2CCOCC2)cc(C)c1C(=O)NCCCc1ccc(F)cc1 [Example 108, 2-Ethylsulfanyl-N-[3-(4-fluorophenyl)-propyl]-4-methyl-6-morpholin-4-yl-pyridine-3-carboxylic acid amide]",203%,317 nM
"CCSc1nc(N2CCOCC2)cc(C)c1C(=O)NCCCc1ccccn1 [Example 109, 2-Ethylsulfanyl-4-methyl-6-morpholin-4-yl-N-(3-pyridin-2-yl-propyl)-pyridine-3-carboxylic acid amide]",53%,–
"CCCCOc1nc(N2CCOCC2)cc(C)c1C(=O)NCc1cccc(F)c1 [Example 110, 2-Butoxy-N-[(3-fluorophenyl)-methyl]-4-methyl-6-morpholin-4-yl-pyridine-3-carboxylic acid amide]",163%,71 nM
"CCCOc1nc(N2CCOCC2)cc(C)c1C(=O)NCc1cccc(F)c1 [Example 111, N-[(3-Fluorophenyl)-methyl]-4-methyl-6-morpholin-4-yl-2-propoxy-pyridine-3-carboxylic acid amide]",153%,109 nM
"CCSc1nc(N2CC(=O)C2)cc(C)c1C(=O)NCc1cccc(F)c1 [Example 112, 2-Ethylsulfanyl-N-[(3-fluorophenyl)-methyl]-4-methyl-6-(3-oxo-azetidin-1-yl)-pyridine-3-carboxylic acid amide]",130%,2740 nM
"CCSc1nc(N2CCOCC2)cc(C)c1C(=O)NCCCc1cccc(F)c1 [Example 113, 2-Ethylsulfanyl-N-[3-(3-fluorophenyl)-propyl]-4-methyl-6-morpholin-4-yl-pyridine-3-carboxylic acid amide]",192%,212 nM
"CCSc1nc(N2CCOCC2)cc(C)c1C(=O)NCCCc1cccnc1 [Example 114, 2-Ethylsulfanyl-4-methyl-6-morpholin-4-yl-N-(3-pyridin-3-yl-propyl)-pyridine-3-carboxylic acid amide]",126%,9380 nM

SMILES,Emax,EC50
"CCSc1nc(N2CCOCC2)cc(C)c1C(=O)NCCCc1ccncc1 [Example 115, 2-Ethylsulfanyl-4-methyl-6-morpholin-4-yl-N-(3-pyridin-4-yl-propyl)-pyridine-3-carboxylic acid amide]",96%,7970 nM
"CCSc1nc(N2CCOCC2)cc(C)c1C(=O)NCCCCC(C)(C)C [Example 116, N-(5,5-Dimethyl-hexyl)-2-ethylsulfanyl-4-methyl-6-morpholin-4-yl-pyridine-3-carboxylic acid amide]",210%,131 nM
"COc1nc(N2CCOCC2)cc(C)c1C(=O)NCc1ccc(C(F)(F)F)cc1 [Example 117, 2-Methoxy-4-methyl-6-morpholin-4-yl-N-[[4-(trifluoromethyl)-phenyl]-methyl]pyridine-3-carboxylic acid amide]",128%,268 nM
"CCSc1nc(N(C)Cc2ccncc2)cc(C)c1C(=O)NCc1cccc(F)c1 [Example 118, 2-Ethylsulfanyl-N-[(3-fluorophenyl)-methyl]-4-methyl-6-[methyl-(pyridin-4-yl-methyl)-amino]-pyridine-3-carboxylic acid amide]",3%,–
"CCSc1nc(N(C)Cc2cccnc2)cc(C)c1C(=O)NCc1cccc(F)c1 [Example 119, 2-Ethylsulfanyl-N-[(3-fluorophenyl)-methyl]-4-methyl-6-[methyl-(pyridin-3-yl-methyl)-amino]-pyridine-3-carboxylic acid amide]",91%,2420 nM
"CCSc1nc(N(C)C(=O)c2ccc(F)cc2)cc(C)c1C(=O)NCc1cccc(F)c1 [Example 120, 2-Ethylsulfanyl-6-[(4-fluoro-benzoyl)-methyl-amino]-N-[(3-fluorophenyl)-methyl]-4-methyl-pyridine-3-carboxylic acid amide]",10%,–
"CCSc1nc(N(C)Cc2ccccn2)cc(C)c1C(=O)NCc1cccc(F)c1 [Example 121, 2-Ethylsulfanyl-N-[(3-fluorophenyl)-methyl]-4-methyl-6-[methyl-(pyridin-2-yl-methyl)-amino]-pyridine-3-carboxylic acid amide]",35%,–
"CCSc1nc(N(C)C(C)=O)cc(C)c1C(=O)NCc1cccc(F)c1 [Example 123, 6-(Acetyl-methyl-amino)-2-ethylsulfanyl-N-[(3-fluorophenyl)-methyl]-4-methyl-pyridine-3-carboxylic acid amide]",67%,–
"CCSc1nc(N2CCOCC2)cc(C)c1C(=O)NCc1ccc(Cl)cc1 [Example 124, N-[(4-Chlorophenyl)-methyl]-2-ethylsulfanyl-4-methyl-6-morpholin-4-yl-pyridine-3-carboxylic acid amide]",149%,82 nM
"CCSc1nc(N2CCOCC2)cc(C)c1C(=O)NCc1cccc(Cl)c1 [Example 125, N-[(3-Chlorophenyl)-methyl]-2-ethylsulfanyl-4-methyl-6-morpholin-4-yl-pyridine-3-carboxylic acid amide]",152%,87 nM
"CCSc1nc(N(CCOC)CCOC)cc(C)c1C(=O)NCc1cccc(F)c1 [Example 126, 6-[Bis(2-methoxy-ethyl)-amino]-2-ethylsulfanyl-N-[(3-fluorophenyl)-methyl]-4-methyl-pyridine-3-carboxylic acid amide]",145%,2090 nM
"CCN(C)c1nc(N2CCOCC2)cc(C)c1C(=O)NCc1cccc(F)c1 [Example 127, 2-(Ethyl-methyl-amino)-N-[(3-fluorophenyl)-methyl]-4-methyl-6-morpholin-4-yl-pyridine-3-carboxylic acid amide]",238%,385 nM
"CCSc1nc(N(C)CCCOC)cc(C)c1C(=O)NCc1cccc(F)c1 [Example 128, 2-Ethylsulfanyl-N-[(3-fluorophenyl)-methyl]-6-(3-methoxy-propyl-methyl-amino)-4-methyl-pyridine-3-carboxylic acid amide]",142%,785 nM
"CCSc1nc(N2CCOCC2)cc(C)c1C(=O)NCCCc1ccccc1F [Example 129, 2-Ethylsulfanyl-N-[3-(2-fluorophenyl)-propyl]-4-methyl-6-morpholin-4-yl-pyridine-3-carboxylic acid amide]",206%,221 nM
"CCSc1nc(N2CCOCC2)cc(C)c1C(=O)NCc1cccc(OC(F)(F)F)c1 [Example 130, 2-Ethylsulfanyl-4-methyl-6-morpholin-4-yl-N-[[3-(trifluoromethyloxy)-phenyl]methyl]-pyridine-3-carboxylic acid amide]",148%,74 nM
"CCSc1nc(N2CCOCC2)cc(C)c1C(=O)NCc1cccc(COC)c1 [Example 131, 2-Ethylsulfanyl-N-[[3-(methoxymethyl)-phenyl]-methyl]-4-methyl-6-morpholin-4-yl-pyridine-3-carboxylic acid amide]",137%,1250 nM
"CCOc1nc(N2CCOCC2)cc(C)c1C(=O)NCc1ccc(C(F)(F)F)cc1 [Example 132, 2-Ethoxy-4-methyl-6-morpholin-4-yl-N-[[4-(trifluoromethyl)-phenyl]-methyl]pyridine-3-carboxylic acid amide]",122%,110 nM
